This is an account of results in patent publication US9289428B2, “Conveniently injectable or implantable sustained-release antioxidant formulations for therapies of ocular maladies or cancer” (RAMSCOR, INC., priority 2011, dated 2016).

Series [1] in a line: Concentration of active agent in the rabbit eye after injection of a sustained release formulation into the vitreous. In kind it is in vivo. As for the experimental part: A 10 μL unit dose of either formulation 1 or formulation 2 was injected into the eyes of two rabbits, and the concentration of timolol or dexamethasone (dex) remaining in the eye tested at 7 days and 14 days thereafter. A 50 μL unit dose was injected into the vitreous of two rabbit's eyes, and the concentrations of active agent detected 7 days thereafter and averaged. Timalol was detected at 8.93 μg/mL; Dex was detected at 2.82 μg/mL.
A formulation consisting of 20% timolol maleate:10% Reservatrol:70% (1:1 ATEC:EA) was prepared by mixing. A unit dose of 50 μL was injected into the vitreous of two rabbit eyes, and Reservatrol was detected at 0.64 μg/mL (average) 7 days thereafter.

For a further series, the system named is B16 melanoma tumors. Kind of series: Mouse B16 melanoma tumor model, single intratumoral implantation of sustained release antioxidant formulation. In kind it is in vivo, C57 mouse. The source says:
A mouse model was used to study the in vivo effect of sustained release antioxidant formulations on melanoma tumors. Mouse B16 melanoma Cell lines were obtained from NCI-Frederick, Md. C57 Mice were obtained from Simonsen Laboratories in Gilroy, Calif. Anesthesia was Ketamine/Xylazine/Acepromacine 1:1:0.03 mixture. […] cell suspension and 1×1 mm tumor pieces were preserved in 90% Fetal Bovine Serum and 10% DMSO in liquid nitrogen. Tumor was also maintained by in vivo serial subcutaneous passage.
Mice of either sex, weighing 16-18 grams, were anesthetized with the ketamine mixture. Subcutaneous implantation of the B16 suspension (100 ul of 2×10^6/ml) or solid tumor piece were performed in the back or nape of the mouse. Tumors were treated when tumor reached the average size of 6×6 mm in diameter and weighed approximately 0.6-0.8 grams in 7-10 days.
Treatment consisted of a single intratumoral implantation of semi-solid drug formulations. Each formulation consisted of 2 mg of active pharmaceutical ingredient (API): either Resveratrol, Astaxanthin, or Melatonin; in either tocopherol acetate (EA), benzyl benzoate (BB), or acetyltriethyl citrate (ATEC) excipients (all Sigma Chemical). The ratio of API and excipient was 80:20 by weight.

The structures appear in SMILES notation. Read-outs that look alike come from different tables or passages of the source.

Compound `C[C@@H]1C[C@H]2[C@@H]3CCC4=CC(=O)C=C[C@]4(C)[C@@]3(F)[C@@H](O)C[C@]2(C)[C@@]1(O)C(=O)CO` [Dex, dexamethasone] showed a concentration at 7 days in series [1] (rabbit, in vivo) of 2820 ng/mL.

`CC(C)(C)NC[C@H](O)COc1nsnc1N1CCOCC1` [Timalol, timolol] showed a concentration at 7 days in series [1] (rabbit, in vivo) of 8930 ng/mL. For the compound `CC1=C(/C=C/C(C)=C/C=C/C(C)=C/C=C/C=C(C)/C=C/C=C(C)/C=C/C2=C(C)C(=O)[C@@H](O)CC2(C)C)C(C)(C)C[C@H](O)C1=O` [astaxanthin], in the series on B16 melanoma tumors (after the single treatment), the “time to complete clinical resolution of the tumor” value was 5-7 weeks; the “time to peeling of overlying skin surface and beginning ulceration” value was “about one”; the “tumor growth after treatment” value is “stopped growing immediately”. The “condition and body weight of the animals” value with B16 melanoma tumors (until termination of the experiment on day 90) was “remained active and continued to gain weight”. On to `Oc1ccc(/C=C/c2cc(O)cc(O)c2)cc1` [Reservatrol, 3,5,4′-trihydroxy-trans-stilbene], for which the concentration at 7 days in series [1] (other: intravitreal injection, 50 μL unit dose of 20% timolol maleate:10% Reservatrol:70% (1:1 ATEC:EA) injected into vitreous of two rabbit eyes, 7 days thereafter, average, read-out: concentration of Reservatrol detected in the vitreous) is 640 ng/mL.
